Measurements as given in paper PMC9114115, “Property space mapping of Pseudomonas aeruginosa permeability to small molecules” (Scientific Reports, 2022).
≈ marks a conversion by molar mass, not a printed value. Where “and” joins values, the source holds several entries; their conditions need not be identical. Equal values may be shown once. Read-outs that look alike come from different tables or passages of the source.

Key:
P. aeruginosa PΔ3-Pore = assay: MIC by two-fold dilution, barrierless PΔ3-Pore; format: cell-based, Pseudomonas aeruginosa; settings: for MIC: Pseudomonas aeruginosa; for MICs: P∆3-Pore, Table S2
Description: (§1) In all experiments, P. aeruginosa PAO1-Pore (PAO1 attTn7::PLAC-fhuA) and PΔ3-Pore (ΔmexAB ΔmexCD ΔmexXY attTn7::PLAC-fhuA) strains were used[29]. Strains were routinely grown in Luria–Bertani (LB) or MOPS-M9 medium at 37 °C with aeration. MICs shown in Tables 1 and 2 were determined by a two-fold dilution method in LB broth and MOPS-M9 medium, respectively, following the previously described protocol.

P. aeruginosa PAO1 = assay: MIC by two-fold dilution, wild type PAO1; format: cell-based, Pseudomonas aeruginosa; settings: for MIC: Pseudomonas aeruginosa
Description: as §1

P. aeruginosa PAO1-Pore = assay: MIC by two-fold dilution, hyperporinated PAO1-Pore; format: cell-based, Pseudomonas aeruginosa; settings: for MICs: PAO1-Pore, LB broth, Table S2; for MIC: Pseudomonas aeruginosa
Description: as §1

P. aeruginosa PΔ3 = assay: microbe, parasite or virus in culture; format: cell-based, Pseudomonas aeruginosa; settings: Pseudomonas aeruginosa
Description: as §1

[1] = test system: four strains of P. aeruginosa; format: cell-based, Pseudomonas aeruginosa
Description: Cells were sub-cultured (50–100 mL) 1:100 in fresh LB broth in two flasks per strain. At OD600 0.3 (~ 1.5 to 2 h of incubation), the expression of the pore was induced with 0.1 mM IPTG (final concentration) in one of the flasks and cells were grown for additional 1 to 1.5 h (OD600 1- 1.5). Cells were collected by centrifugation at room temperature (RT) and washed in PMG Buffer (50 mM KPi, pH 7.0, 1 mM MgSO4, 0.4% glucose, prepared fresh) and concentrated 20x (i.e., 100 mL culture resuspended in 5 ml of PMG Buffer with final OD600 ~ 20–30). Assays were performed in 96-well 1.0 µm Glass Fiber Type B filters plates (Millipore). […]
[…] Filter plates were dried, removed from the vacuum manifold and left in the hood overnight to dry completely.

[2] = test system: P. aeruginosa PΔ3-Pore cells; assay: LC–MS quantification of intracellular accumulation, PΔ3-Pore; settings: 10-80 µM; for Concentration slopes of accumulation, PΔ3-Pore_1 min: 1 min incubation; for Concentration slopes of accumulation, PΔ3-Pore_40min: 40 min incubation;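 on all read-outs here: slope of accumulation versus external concentration fitted as a line through zero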
How it was run: (§2)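 Cells grown in MOPS-M9 (pH 7.2) with 1% glycerol, Pore strains induced with 0.1 mM IPTG, concentrated 10X in spent medium and exposed to 10, 20, 40, 80 µM compound for 1 and 40 min at RT. Filter-collected cells extracted with methanol; compound quantified by positive-ion LC–MS against calibration in PAO1 cell extract, no-cell filter controls.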

P. aeruginosa PAO1 cells = assay: LC–MS quantification of intracellular accumulation, PAO1; settings: 10-80 µM; for Concentration slopes of accumulation, PAO1_1 min: 1 min incubation; for Concentration slopes of accumulation, PAO1_40 min: 40 min incubation;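 on all read-outs here: slope of accumulation versus external concentration fitted as a line through zero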
How it was run: as §2

P. aeruginosa PΔ3 cells = settings: 10-80 µM; for Concentration slopes of accumulation, PΔ3_1 min: 1 min incubation; for Concentration slopes of accumulation, PΔ3_40 min: 40 min incubation;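 on all read-outs here: slope of accumulation versus external concentration fitted as a line through zero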
How it was run: as §2

[3] = test system: P. aeruginosa PAO1-Pore cells; assay: LC–MS quantification of intracellular accumulation, PAO1-Pore; settings: 10-80 µM; for Concentration slopes of accumulation, PAO1-Pore_1 min: 1 min incubation; for Concentration slopes of accumulation, PAO1-Pore_40 min: 40 min incubation;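 on all read-outs here: slope of accumulation versus external concentration fitted as a line through zero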
How it was run: as §2

P. aeruginosa = settings: sheet "Good" permeators; all listed compounds are good permeators
Description: The measured levels of compound accumulation were analyzed using machine learning to determine which features of the compounds are most important for enabling their cellular accumulation and to determine their optimal values. […] To accentuate the permeability aspect, the accumulation slopes in efflux-deficient and hyperporinated strains were normalized to those in the parental PAO1 strain.
To help visualize the data, we performed a principal component (PC) decomposition of the data.

[4] = PAO1, LB broth, Table 1, read-out: MIC
[5] = radioactively labeled compound, four strains, 20 min
[6] = read-out: MICs, P∆3-Pore, MOPS-M9 medium
[7] = PAO1, MOPS-M9 medium, read-out: MICs

Row | SMILES | MIC (P. aeruginosa PΔ3-Pore; PΔ3-Pore, LB broth, Table 1) | MICs (P. aeruginosa PΔ3-Pore; LB broth) | MIC (P. aeruginosa PAO1; [4]) | MICs (P. aeruginosa PAO1-Pore) | MIC (P. aeruginosa PAO1-Pore; PAO1) | MIC (P. aeruginosa PΔ3) | MIC (P. aeruginosa PΔ3-Pore; [6]) | Concentration slopes of accumulation, PΔ3-Pore_1 min [2] | Concentration slopes of accumulation, PΔ3-Pore_40min [2] | Concentration slopes of accumulation, PAO1_1 min (P. aeruginosa PAO1 cells) | Concentration slopes of accumulation, PAO1_40 min (P. aeruginosa PAO1 cells) | MIC (P. aeruginosa PAO1; [7]) | MIC (P. aeruginosa PAO1-Pore; PAO1, read-out: MICs) | Concentration slopes of accumulation, PΔ3_1 min (P. aeruginosa PΔ3 cells) | Concentration slopes of accumulation, PΔ3_40 min (P. aeruginosa PΔ3 cells) | Concentration slopes of accumulation, PAO1-Pore_1 min [3] | Concentration slopes of accumulation, PAO1-Pore_40 min [3] | MIC (P. aeruginosa PΔ3; read-out: MICs) | Cluster of the identified "good" permeators (P. aeruginosa) | also measured
1 | CN(C)[C@@H]1C(O)=C(C(N)=O)C(=O)[C@@]2(O)C(O)=C3C(=O)c4c(O)cccc4[C@@](C)(O)[C@H]3C[C@@H]12 [Tetracycline] | 0.78 µM and 0.35 µg/mL | 0.78 | 12.5 µM and 5.56 µg/mL | 0.39-1.56 | 0.39 µM and 0.17 µg/mL | 0.78 µM and 0.35 µg/mL | – | – | – | – | – | – | – | – | – | – | – | – | – | effect of efflux inactivation and hyperporination on accumulation ([1]; not told): equally affected by inactivation of efflux and hyperporination
2 | Cc1cc(C(C)(C)C)c(O)c(C)c1CC1=NCCN1 [Oxymetazoline] | 1000 µM (≈ 260 µg/mL) | – | > 1000 µM | – | > 1000 µM | 1000 µM (≈ 260 µg/mL) | – | – | – | – | – | – | – | – | – | – | – | – | – | accumulated radioactivity washed out of cells ([1]; PΔ3-Pore cells, 30 min incubation, 0.1 mL wash): 95%; effect of efflux inactivation and hyperporination on accumulation [1, 5]: Efflux inactivation or hyperporination resulted in a similar increase
3 | COCCc1ccc(OCC(O)CNC(C)C)cc1 (centres unmarked) [Metoprolol] | > 1000 µM | – | > 1000 µM | – | > 1000 µM | > 1000 µM | – | – | – | – | – | – | – | – | – | – | – | – | – | effect of efflux inactivation and hyperporination on accumulation [1, 5]: not affected by either of the two barriers
4 | COc1c(N2CCNC(C)C2)c(F)cc2c(=O)c(C(=O)O)cn(C3CC3)c12 (centres unmarked) [OU-0000623, GATIFLOXACIN] | – | 0.0039 | – | 0.25 | – | – | 0.031 µM and 0.01 µg/mL | 1.90 | 5.45 | 1.47 | 6.10 | 2 µM and 0.8 µg/mL | 0.0625 µM and 0.02 µg/mL | 1.11 | 4.13 | 2.29 | 4.14 | 0.5 µM and 0.2 µg/mL | 1 | –
5 | C[C@@H]1CN(c2c(F)c(N)c3c(=O)c(C(=O)O)cn(C4CC4)c3c2F)C[C@H](C)N1 [OU-0000617, SPARFLOXACIN] | – | 0.0039 | – | 0.25 | – | – | 0.016 µM and 0.01 µg/mL | 4.64 | 10.98 | 4.89 | 5.25 | 2 µM and 0.8 µg/mL | 0.031 µM and 0.01 µg/mL | 5.48 | 4.11 | 8.17 | 10.82 | 0.5 µM and 0.2 µg/mL | 4 | –
6 | CC(=O)NC[C@H]1CN(c2ccc(N3CCOCC3)c(F)c2)C(=O)O1 [OU-0031508, linezolid] | – | 12.5 | – | 25 | – | – | 25 µM (≈ 8.43 µg/mL) | 30.83 | 28.73 | 34.71 | 41.30 | > 200 µM and > 67.5 µg/mL | 200 µM (≈ 67.5 µg/mL) | 39.20 | 25.30 | 12.71 | 26.51 | 200 µM (≈ 67.5 µg/mL) | 3 | –
7 | CCn1cc(C(=O)O)c(=O)c2cc(F)c(N3CCNC(C)C3)c(F)c21 (centres unmarked) [OU-0000616, LOMEFLOXACIN] | – | 0.024 | – | 1.56 | – | – | 0.125 µM (≈ 0.0439 µg/mL) | 3.95 | 8.65 | 3.37 | 2.56 | 2.5 µM (≈ 0.878 µg/mL) | 0.125 µM (≈ 0.0439 µg/mL) | 2.91 | 6.86 | 2.85 | 10.46 | 0.625 µM (≈ 0.22 µg/mL) | 4 | MICs (P. aeruginosa PAO1; PAO1, LB broth, Table S2): 1.56
8 | Cc1oc(=O)oc1CN1CCN(c2cc3c(cc2F)c(=O)c(C(=O)O)c2n3C(C)S2)CC1 (centres unmarked) [OU-0000631, PRULIFLOXACIN] | – | 0.0039 | – | 0.0625 | – | – | 0.004 µM and 0.002 µg/mL | 5.06 | 5.20 | 10.64 | 11.45 | 0.5 µM and 0.23 µg/mL | 0.016 µM and 0.01 µg/mL | 7.35 | 8.36 | 7.49 | 9.31 | 0.125 µM and 0.06 µg/mL | 3 | –
9 | Cc1cc(C)nc(NS(=O)(=O)c2ccc(N)cc2)n1 [OU-0000689, SULFAMETHAZINE] | – | – | – | – | – | – | 12.5 µM and 3.75 µg/mL | 1.54 | 1.19 | 1.42 | 1.40 | > 200 µM and > 60.1 µg/mL | 50 µM and 15 µg/mL | 1.31 | 1.35 | 1.53 | 1.05 | 100 µM and 30 µg/mL | 1 | –
10 | CCn1cc(C(=O)O)c(=O)c2cc(F)c(N3CCNCC3)cc21 [OU-0000789, Norfloxacin] | – | 0.0156 | – | 1 | – | – | 0.1 µM and 0.03 µg/mL | 25.07 | 33.05 | 37.81 | 32.76 | 1.25 µM and 0.4 µg/mL | 0.2 µM and 0.06 µg/mL | 15.28 | 26.08 | 31.44 | 54.56 | 0.625 µM and 0.2 µg/mL | 3 | –
